# Reference: patent US8030339B2, “Imidazole derivatives for the treatment of anxiety and related diseases” (Neurosearch A/S, priority 2005, dated 2011)
# Key:
# [1] = target: benzodiazepine binding site on GABAA receptors; assay: In vitro inhibition of 3H-flunitrazepam (3H-FNM) binding; set-up: species or system rat; conditions: cerebral cortex membranes from male Wistar rats; 3H-FNM 1 nM; 40 min at 2° C.
# Protocol: In Vitro Inhibition of […] (3H-FNM) Binding
# […] the benzodiazepine modulatory unit can selectively be labelled with ^3H-flunitrazepam.
# Preparations are performed at 0-4° C. unless otherwise indicated. Cerebral cortex from male Wistar rats (150-200 g) is homogenised for 5-10 sec in 20 ml Tris-HCl (30 mM, pH 7.4) using an Ultra-Turrax homogeniser. The suspension is centrifuged at 27,000×g for 15 min and the pellet is washed three times with buffer (centrifuged at 27,000×g for 10 min). The washed pellet is homogenized in 20 ml of buffer and incubated on a water bath (37° C.) for 30 min to remove endogenous GABA and then centrifuged for 10 min at 27,000×g. The pellet is then homogenized in buffer and centrifuged for 10 min at 27,000×g. The final pellet is resuspended in 30 ml buffer and the preparation is frozen and stored at −20° C.
# The membrane preparation is thawed and centrifuged at 2° C. for 10 min at 27,000×g. The pellet is washed twice with 20 ml 50 mM Tris-citrate, pH 7.1 using an Ultra-Turrax homogeniser and centrifuged for 10 min at 27,000×g. The final pellet is resuspended in 50 mM Tris-citrate, pH 7.1 (500 ml buffer per g of original tissue), and then used for binding assays. Aliquots of 0.5 ml tissue are added to 25 μl of test solution and 25 μl of ^3H-FNM (1 nM, final concentration), mixed and incubated for 40 min at 2° C. Non-specific binding is determined using Clonazepam (1 μM, final concentration). After incubation the samples are added 5 ml of ice-cold buffer and poured directly onto Whatman GF/C glass fibre filters under suction and immediately washed with 5 ml ice-cold buffer. The amount of radioactivity on the filters is determined by conventional liquid scintillation counting. Specific binding is total binding minus non-specific binding.
# 25-75% inhibition of specific binding must be obtained, before calculation of an IC50.
# The test value will be given as IC50 (the concentration (μM) of the test substance which inhibits the specific binding of ^3H-FNM by 50%).
# Co is specific binding in control assays, and […]
structure (smiles),measurement,setting,value
"O=C(c1ccccc1)c1cn(-c2cccc(-c3ccccc3)c2)cn1 [Compound 8, (1-Biphenyl-3-yl-1H-imidazol-4-yl)-phenyl-methanone]",IC50,[1],36 nM
"COc1ccc(F)cc1-c1cccc(-n2cnc(C(=O)c3ccccn3)c2)c1 [Compound 14, [1-(5′-Fluoro-2′-methoxy-biphenyl-3-yl)-1H-imidazol-4-yl]-pyridin-2-yl-methanone]",IC50,[1],2.7 nM
"O=C(c1cn(-c2cccc(-c3ccccc3)c2)cn1)n1cccn1 [Compound 178, (1-Biphenyl-3-yl-1H-imidazol-4-yl)-pyrazol-1-yl-methanone]",IC50,[1],5.9 nM
same,melting point,,124 to 127 °C
